The subject of the assay is Herpesviridae sp. In words: Antiviral activity against Herpes simplex virus infected in African green monkey Vero cells measured at 24 hrs post infection at 2 mins interval for 25 times. Type of assay: functional, organism-based.

Take `CCCCCCCCCc1oc2c(O)ccc(-c3oc4cc(O)cc(O)c4c(=O)c3O[C@@H]3O[C@H](CO)[C@H](O)[C@H](O)[C@H]3O)c2c1C=O`: inhibition was half-maximal at 23.5 µM (IC50). Consider `CCCCCCCCCc1cc2c(-c3oc4cc(O)cc(O)c4c(=O)c3O[C@@H]3O[C@H](CO)[C@H](O)[C@H](O)[C@H]3O)ccc(O)c2o1`, for which inhibition was half-maximal at 57.7 µM (IC50).

As a reminder, the IC50 is the midpoint of a concentration-inhibition curve.

Source of the values: ChEMBL document CHEMBL4138287, “Total Synthesis of the Flavonoid Natural Product Houttuynoid A” (J Nat Prod, 2018).
